The source of these data is patent US20240139229A1, “TREATMENT FOR AORTOPATHY” (UNIVERSITY OF KENTUCKY RESEARCH FOUNDATION, priority 2021, published 2024).

The subject of the experiment is BAPN-induced aortic aneurysm and dissection. Put plainly: Disulfiram in BAPN-induced aortopathy mouse model, survival. The experiment is classed as in vivo. The conditions noted are these: male C57BL/6J mice, 3 weeks old, BAPN 0.5% wt/vol in drinking water for 28 days, disulfiram 10 mg/mL in sesame oil, daily I.P. 100 μL per 20 g body weight, day -1 to 27, compared to vehicle. The procedure: For the evaluation, an animal model of aortic aneurysm as described above was used to evaluate effects of disulfiram on aortic aneurysm/aortopathy. The model comprised administration of BAPN, i.e., BAPN-induced aortopathy in a mouse model. Specifics of induction of hypercholesteremia and administration of BAPN were substantially as described supra. Male C57BL/6J mice at 3 weeks old were administered beta-aminopropionitrile (BAPN, 0.5% wt/vol) in drinking water for 28 days to induce aortic aneurysm and dissection.
The mice were separated randomly into two groups: control and treatment. For the control group, sesame oil was administered daily via intraperitoneal (I.P.) injection at 100 μL per 20 g body weight from day −1 to 27 (day −1 is the day before the first day of BAPN administration). Simultaneously, for treatment group, disulfiram at 10 mg/mL in sesame oil was administered daily via I.P. injection at 100 μL per 20 g body weight. Animal survival was monitored for 28 days during BAPN administration.

SMILES strings stand for the structures.

Take `CCN(CC)C(=S)SSC(=S)N(CC)CC` [disulfiram, tetraethyldisulfanedicarbothioamide]: the Animal survival result is recorded as “statistically significant increases in days of survival”. Further, where the note is “listed as Disulfiram”, the Animal survival result is on record as “protects against death from aortopathy”.
